From publication PMC7560712, “Analysis of translating mitoribosome reveals functional characteristics of translation in mitochondria of fungi” (Nature Communications, 2020)

Tests used:
[1] = biological target: T1, mS29 (mitoribosomal small subunit) (Neurospora crassa, UniProt Q7SD06); assay: cryo-EM structure; assay type: binding; conditions: co-purified endogenous nucleotide in P-loop pocket; assigned as ATP rather than GDP from density and chemical environment (Leu150); local resolution 2.77 A
T1 construct: gene rsm23; native mS29 within the mtSSU of intact mitoribosomes purified from mycelia mitochondria; His-tag is on Oxa1 only
T1 sequence (Q7SD06 1-469): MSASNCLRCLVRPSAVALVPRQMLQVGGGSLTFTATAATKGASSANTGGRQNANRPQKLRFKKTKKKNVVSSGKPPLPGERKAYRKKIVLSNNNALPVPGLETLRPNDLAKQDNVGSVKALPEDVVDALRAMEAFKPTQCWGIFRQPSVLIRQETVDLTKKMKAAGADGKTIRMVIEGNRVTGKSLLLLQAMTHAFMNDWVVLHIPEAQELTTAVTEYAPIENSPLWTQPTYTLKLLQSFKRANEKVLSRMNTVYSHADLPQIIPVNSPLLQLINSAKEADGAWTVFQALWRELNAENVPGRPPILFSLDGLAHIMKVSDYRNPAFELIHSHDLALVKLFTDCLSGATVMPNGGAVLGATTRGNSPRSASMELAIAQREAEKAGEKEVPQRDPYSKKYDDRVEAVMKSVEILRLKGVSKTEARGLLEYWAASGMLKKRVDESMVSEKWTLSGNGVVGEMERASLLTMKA

[2] = biological target: T2, pocket formed by mL40, uL5m, and rRNA H84-ES3 (central protuberance of mtLSU) (Neurospora crassa, UniProt Q1K6P0+V5IQE0); assay: cryo-EM structure; assay type: binding; conditions: co-purified endogenous ligand; assignment 'most likely'; Arg295 of mL40 stacks on nicotinamide; rRNA part of site; oxidation state not stated
T2 construct: gene mrpl28; native proteins within the mtLSU of intact mitoribosomes; site also formed by 23S rRNA (H84-ES3, A2755, U2759)
T2 sequence (Q1K6P0 whole entry): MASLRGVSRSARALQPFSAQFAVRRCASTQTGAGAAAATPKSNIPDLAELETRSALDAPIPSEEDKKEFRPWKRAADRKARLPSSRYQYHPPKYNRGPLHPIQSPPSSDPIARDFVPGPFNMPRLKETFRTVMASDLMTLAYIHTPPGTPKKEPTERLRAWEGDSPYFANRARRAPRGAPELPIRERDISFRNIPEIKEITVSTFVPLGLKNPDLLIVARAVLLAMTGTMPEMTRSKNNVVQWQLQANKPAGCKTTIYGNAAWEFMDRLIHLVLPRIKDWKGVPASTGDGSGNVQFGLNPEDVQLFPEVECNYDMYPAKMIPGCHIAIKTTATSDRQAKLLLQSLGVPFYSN
T2 sequence (V5IQE0 whole entry): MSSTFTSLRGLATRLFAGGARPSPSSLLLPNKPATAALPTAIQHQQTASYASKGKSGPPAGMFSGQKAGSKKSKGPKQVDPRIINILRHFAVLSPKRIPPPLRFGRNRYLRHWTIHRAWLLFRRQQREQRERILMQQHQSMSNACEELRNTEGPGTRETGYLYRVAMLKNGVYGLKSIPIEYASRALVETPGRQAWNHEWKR

| SMILES | cryo-EM structure [1] | cryo-EM structure [2] |
| --- | --- | --- |
| Nc1ncnc2c1ncn2[C@@H]1O[C@H](COP(=O)(O)OP(=O)(O)OP(=O)(O)O)[C@@H](O)[C@H]1O [ATP] | the correct assignment for the nucleotide is adenosine triphosphate (ATP) |  |
| NC(=O)c1ccc[n+]([C@@H]2O[C@H](COP(=O)([O-])OP(=O)(O)OC[C@H]3O[C@@H](n4cnc5c(N)ncnc54)[C@H](O)[C@@H]3O)[C@@H](O)[C@H]2O)c1 [NAD] |  | we conclude that it is most likely to be NAD |
